Data on 10 compounds can be found in ChEMBL document CHEMBL1201862, “PubChem BioAssay data set” (2004).

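Each compound was tested at five concentrations against cells in 96-well plates for 48 hours. Here, GI50 denotes the concentration required for 50% inhibition of growth.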 Activity calls are given as the source filed them. No stated cut-off is given here; in the data, active = GI50 up to about 1.1 µM and inactive = higher.

Test systems include UACC-62; CAKI-1; Hs-578T; HT-29; OVCAR-5; SK-MEL-28; BT-549; COLO 205; NCI-H522; MDA-MB-435; PC-3; OVCAR-8; SN12C; DU-145; T47D; MDA-MB-231; HCT-116; A498; A549; SW-620.
Assay in all cases: inhibition of tumour cell growth, NCI panel, 48 h

Take `COC(=O)C1Cc2c([nH]c3ccccc23)C(c2cccc(O)c2)N1` (stereo not given): the GI50 with UACC-62 was 44.2 µM (inactive); with CAKI-1, 57 µM (inactive); with Hs-578T, 37.4 µM (inactive); in the assay with HT-29 it was 27.6 µM (inactive); with OVCAR-5, 28.8 µM (inactive); with SK-MEL-28, 28.7 µM (inactive). Besides, the GI50 in the assay on BT-549 is 22.3 µM (inactive); in the assay on COLO 205, 30.5 µM (inactive); in the assay on NCI-H522, 33.6 µM (inactive); with MDA-MB-435 it was 18.2 µM (inactive); in the assay with PC-3, 27.3 µM (inactive); in the assay on OVCAR-8, 32.1 µM (inactive). Further, the GI50 in the assay on SN12C was 40.9 µM (inactive); with DU-145, 23.4 µM (inactive); in the assay on T47D, 41.5 µM (inactive); in the assay on MDA-MB-231 it was 22.3 µM (inactive); with HCT-116, 35.7 µM (inactive); in the assay with A498, 42.9 µM (inactive). In addition, the GI50 was 41 µM (inactive) in the assay on A549 and 24.3 µM (inactive) with SW-620.
With `Nc1ncnc2c1ncn2[C@@H]1O[C@H](COC(c2ccccc2)(c2ccccc2)c2ccccc2)[C@@H](OC(=S)Oc2ccccc2)[C@@H]1F`, the GI50 in the assay on UACC-62 is 13.7 µM (inactive); in the assay on CAKI-1 it was 9.73 µM (inactive); in the assay on Hs-578T, 6.28 µM (inactive); in the assay with HT-29, 6.67 µM (inactive); with OVCAR-5, 19.1 µM (inactive); in the assay with SK-MEL-28 it was 15.2 µM (inactive). Moreover, the GI50 is 4.95 µM (inactive) in the assay on BT-549; 12.4 µM (inactive) in the assay with COLO 205; 2.24 µM (inactive) in the assay with NCI-H522; 4.03 µM (inactive) with MDA-MB-435; 3.88 µM (inactive) with PC-3; 3.37 µM (inactive) with OVCAR-8. Further, the GI50 was 4.46 µM (inactive) in the assay on SN12C; 15.1 µM (inactive) in the assay with DU-145; 8.2 µM (inactive) with T47D; 10.7 µM (inactive) with MDA-MB-231; 3.81 µM (inactive) in the assay on HCT-116; 18.3 µM (inactive) in the assay on A498. In addition, the GI50 in the assay on A549 is 15 µM (inactive); with SW-620, 4.47 µM (inactive).
Turning to `O=P(OCc1ccccc1)(OCc1ccccc1)C(O)/C=C/c1ccccc1` (stereo not given), the GI50 in the assay with UACC-62 is 15.8 µM (inactive); in the assay with CAKI-1, 35.7 µM (inactive); in the assay on Hs-578T it was 17 µM (inactive); with HT-29 it was 21.3 µM (inactive); with OVCAR-5 it was 30.6 µM (inactive); with SK-MEL-28, 37.9 µM (inactive). Moreover, the GI50 was 28.2 µM (inactive) in the assay on BT-549; 21.3 µM (inactive) with COLO 205; 23.8 µM (inactive) with NCI-H522; 17.3 µM (inactive) in the assay on MDA-MB-435; 28 µM (inactive) with PC-3; 24 µM (inactive) with OVCAR-8. For the same compound, the GI50 in the assay on SN12C is 19.8 µM (inactive); with DU-145, 42.9 µM (inactive); with T47D, 33.7 µM (inactive); with MDA-MB-231, 22.3 µM (inactive); with HCT-116, 17.7 µM (inactive); with A498, 17.9 µM (inactive). Besides, the GI50 in the assay with A549 is 32.9 µM (inactive); with SW-620 it was 26.1 µM (inactive).
Regarding `COc1ccc(NS(=O)(=O)c2ccc(NC(NC(=O)CC(C)C)(C(F)(F)F)C(F)(F)F)cc2)nn1`, the GI50 with UACC-62, with CAKI-1, in the assay with Hs-578T, in the assay with HT-29, with OVCAR-5 and with SK-MEL-28 was > 100 µM (inactive) each time. Besides, the GI50 in the assay on BT-549, in the assay on COLO 205, in the assay with NCI-H522, in the assay with MDA-MB-435, in the assay with PC-3 and with OVCAR-8 was > 100 µM (inactive) in each case. The GI50 in the assay with SN12C, in the assay with DU-145, with T47D, with MDA-MB-231, in the assay with HCT-116 and in the assay with A498 was > 100 µM (inactive) throughout. Further, the GI50 in the assay on A549 and with SW-620 was > 100 µM (inactive) each time.
`O=C(N/N=C(COc1ccc(Cl)cc1)\N=C\c1ccncc1)c1ccncc1`: the GI50 with UACC-62, in the assay with CAKI-1, with Hs-578T, in the assay with HT-29, in the assay on OVCAR-5 and with SK-MEL-28 was > 100 µM (inactive) throughout. Besides, the GI50 in the assay on BT-549 was > 100 µM (inactive); in the assay with COLO 205 it was > 100 µM (inactive); in the assay on NCI-H522 it was 84.5 µM (inactive); with MDA-MB-435 it was > 100 µM (inactive); in the assay on PC-3, > 100 µM (inactive); with OVCAR-8 it was > 100 µM (inactive). Moreover, the GI50 in the assay on SN12C is > 100 µM (inactive); with DU-145, > 100 µM (inactive); in the assay on T47D, 96.4 µM (inactive); with MDA-MB-231, > 100 µM (inactive); in the assay with HCT-116 it was > 100 µM (inactive); in the assay with A498, 45.9 µM (inactive). In addition, the GI50 in the assay on A549 and with SW-620 was > 100 µM (inactive) throughout.
Turning to `COc1ccc(C(SCCO)(c2ccccc2)c2ccccc2)cc1`, the GI50 in the assay with UACC-62 is 14.3 µM (inactive); in the assay on CAKI-1, 15.5 µM (inactive); with Hs-578T, 22.3 µM (inactive); with HT-29, 14.5 µM (inactive); in the assay on OVCAR-5 it was 16.9 µM (inactive); in the assay on SK-MEL-28 it was 17.1 µM (inactive). The GI50 with BT-549 was 16.6 µM (inactive); in the assay with COLO 205, 14 µM (inactive); with NCI-H522, 13.6 µM (inactive); in the assay on MDA-MB-435 it was 10.5 µM (inactive); with PC-3 it was 11.9 µM (inactive); in the assay with OVCAR-8, 17.9 µM (inactive). For the same compound, the GI50 with SN12C was 12.8 µM (inactive); in the assay with DU-145 it was 13.6 µM (inactive); in the assay on T47D, 9.84 µM (inactive); in the assay on MDA-MB-231, 14.3 µM (inactive); with HCT-116 it was 10.9 µM (inactive); with A498, 17.2 µM (inactive). The results for the GI50 with A549 and in the assay with SW-620 were 12.2 µM (inactive) and 20.6 µM (inactive), respectively.
Turning to `Clc1ccc(/N=C2\c3ccccc3CN2c2ccc(Cl)cc2)cc1`, the GI50 is > 100 µM (inactive) in the assay on UACC-62; > 100 µM (inactive) with CAKI-1; > 100 µM (inactive) in the assay with Hs-578T; 19 µM (inactive) in the assay with HT-29; > 100 µM (inactive) with OVCAR-5; 64 µM (inactive) in the assay with SK-MEL-28. For the same compound, the GI50 with BT-549 was > 100 µM (inactive); in the assay on COLO 205, 1.58 µM (inactive); in the assay with NCI-H522 it was 63.2 µM (inactive); in the assay on MDA-MB-435, > 100 µM (inactive); in the assay with PC-3 it was 74.3 µM (inactive); in the assay on OVCAR-8 it was > 100 µM (inactive). For the same compound, the GI50 with SN12C was > 100 µM (inactive); in the assay on DU-145, 11.6 µM (inactive); with T47D, 0.219 µM (active); with MDA-MB-231 it was 53.3 µM (inactive); in the assay on HCT-116, 41.4 µM (inactive); in the assay with A498 it was > 100 µM (inactive). The GI50 with A549 is 29.9 µM (inactive); in the assay with SW-620 it was > 100 µM (inactive).
`CC(=O)c1ccc2c3c1[C@H]1O[C@H]1c1cccc(c1-3)[C@@H]1O[C@H]21`: the GI50 in the assay with UACC-62 is 2.01 µM (inactive); with CAKI-1, 1.29 µM (inactive); with Hs-578T, 1.53 µM (inactive); in the assay with HT-29, 2.3 µM (inactive); with OVCAR-5, 1.95 µM (inactive); with SK-MEL-28, 1.79 µM (inactive). Further, the GI50 was 1.87 µM (inactive) with BT-549; 1.71 µM (inactive) in the assay with COLO 205; 0.286 µM (active) in the assay on NCI-H522; 1.79 µM (inactive) in the assay on MDA-MB-435; 2.47 µM (inactive) in the assay with PC-3; 1.56 µM (inactive) in the assay on OVCAR-8. Besides, the GI50 in the assay on SN12C was 1.85 µM (inactive); with DU-145, 2.37 µM (inactive); with T47D it was 2.15 µM (inactive); in the assay with MDA-MB-231, 2.14 µM (inactive); in the assay on HCT-116 it was 1.74 µM (inactive); in the assay with A498, 2.37 µM (inactive). Besides, the GI50 in the assay with A549 was 2.92 µM (inactive); with SW-620, 0.855 µM (active).
As for `O=C(O)CCC(NC(=O)/C(=C/c1ccccc1)NC(=O)c1ccccc1)C(=O)O` (stereo not given), the GI50 with UACC-62, in the assay on CAKI-1, in the assay on Hs-578T, in the assay with HT-29, with OVCAR-5 and with SK-MEL-28 was > 100 µM (inactive) throughout. Moreover, the GI50 with BT-549, in the assay with COLO 205, with NCI-H522, with MDA-MB-435, in the assay on PC-3 and with OVCAR-8 was > 100 µM (inactive) each time. The GI50 with SN12C, in the assay with DU-145, in the assay with T47D, with MDA-MB-231, in the assay with HCT-116 and in the assay on A498 was > 100 µM (inactive) throughout. Moreover, the GI50 with A549 and with SW-620 was > 100 µM (inactive) throughout.
Turning to `COc1cc2c(cc1C)NC(=O)/C2=C/c1c(Cl)[nH]c2cc(C)c(OC)cc12`, the GI50 in the assay on UACC-62 is 2.07 µM (inactive); with CAKI-1 it was 4.04 µM (inactive); in the assay with Hs-578T, 8.65 µM (inactive); in the assay with HT-29, 4.29 µM (inactive); in the assay with OVCAR-5, 7.78 µM (inactive); in the assay on SK-MEL-28, 8.13 µM (inactive). The GI50 was 1.36 µM (inactive) with BT-549; 2.33 µM (inactive) with COLO 205; 5.25 µM (inactive) in the assay with NCI-H522; 2.69 µM (inactive) in the assay on MDA-MB-435; 4.23 µM (inactive) in the assay on PC-3; 5.98 µM (inactive) with OVCAR-8. In addition, the GI50 was 1.86 µM (inactive) in the assay with SN12C; 2.36 µM (inactive) in the assay on DU-145; 2.23 µM (inactive) in the assay on T47D; 13.2 µM (inactive) in the assay on MDA-MB-231; 3.85 µM (inactive) in the assay on HCT-116; 8.73 µM (inactive) with A498. Also, the figures for the GI50 in the assay with A549 and in the assay on SW-620 were 4.55 µM (inactive) and 3.64 µM (inactive), respectively.
